Assay results as given in paper PMC9928118, “Funneling modulatory peptide design with generative models: Discovery and characterization of disruptors of calcineurin protein-protein interactions” (PLOS Computational Biology, 2023).
Values belong to the sequence of their own block, whether it stands above or below them.

Tested on: GST-tagged Cn
Assay: PEPperPRINT peptide microarray binding assay with GST-tagged Cn
Source text: We then estimated in-silico the binding strength of the various peptides to Cn by template-based docking followed by flexible backbone refinement using Modeller and PepCrawler (Figs 4 and S4). In parallel, we performed a medium-throughput qualitative binding assay using a PEPperPRINT peptide microarray to evaluate the direct binding of Cn to selected peptides (Figs 4 and S5, S3 Data).
Fig 4 Medium-throughput filtering by structural modeling and microarray screening. (a) Depiction of the structural modeling protocol: after alignment to the known PxIxIT binding site, an efficient flexible backbone structure refinement algorithm is applied to estimate the docking energy. […] (c) Coefficients of the equivalent single-site model fitted by sparse linear regression, shown in weight logo representation. […] Colors indicate physical property (black = hydrophobic, red = negatively charged, etc.). (d) Per-gene distribution of docking scores across natural fragments (lower is better). […] (e) Overview of the microarray screening. Peptides are printed on the chip (two circles per peptide). After pouring of Cn and subsequent washing, fluorescent-tagged, a Cn-targeting antibody is overlaid and an image is taken. Fluorescent spots indicate strong Cn binders. (f) Scatter plot of the sequence likelihood (normalized by length, higher is better) against fluorescence level (higher is better, see Methods for details of the data analysis).
In parallel, selected peptides were tested for Cn binding on a chip microarray (PEPperPRINT). 786 peptides were printed on the chip and were incubated with GST-tagged Cn overnight at 4°C. Following extensive washing, binding was detected by applying a fluorescently labeled (Alexa-Fluor 647) GST antibody. […] The experiment was repeated five times, and Z-normalized fluorescence levels were determined following post-processing of the raw data (Methods, S5A, S5B and S5C Fig).
The peptide array was prepared as a custom array pepper chip (PEPperPRINT). For binding detection, 1mg/ml GST-tagged Cn was incubated overnight on the microarray at 4°C. Following extensive washing, fluorescently labeled (Alexa-Fluor 647) GST-antibody. […] The experiment was repeated five times. Each scan was analyzed as follows: a grid was overlaid using the border HA markers to determine regions of interest (ROI) for each peptide (two ROIs per peptide) and the logarithm of the average fluorescence intensity was computed for each ROI. […] To remove spatial artifacts, a position-dependent baseline fluorescence was fitted using a second-order polynomial, and subtracted to the fluorescence. Fluorescence levels were next averaged over the two ROI for each peptide and Z-normalized. […] The Z-scores were averaged over the five repetitions to yield one fluorescence score per peptide.

[1] = max over the spots listed under Location on chip
[2] = mean over the spots listed under Location on chip
[3] = GST-tagged Cn, max over the spots on the chip (two locations)
[4] = GST-tagged Cn, mean over the spots on the chip (two locations)
[5] = max over the chip locations listed for the peptide (two spots)
[6] = mean over the chip locations listed for the peptide (two spots)
[7] = GST-tagged Cn, max over the spots named in Location on chip
[8] = GST-tagged Cn, mean over the spots named in Location on chip
[9] = GST-tagged Cn, max over the chip spots listed under Location on chip
[10] = GST-tagged Cn, mean over the chip spots listed under Location on chip
[11] = GST-tagged Cn, max over the chip locations
[12] = GST-tagged Cn, mean over the chip locations

Sequence: NMATVPAVTMGEVART [SeqRBM_5293]
Chip Fluorescence (max) [1]: 2.99
Chip Fluorescence (mean) [2]: -0.7897

Sequence: KSKAAPSIVIHIPEEA [SeqRBM_8661]
Chip Fluorescence (max) [7]: 1.362
Chip Fluorescence (mean) [8]: 0.2601

Sequence: TFWINPQFKVRLDEID [SeqCAPN11_Boiga_irregularis]
Chip Fluorescence (max) [7]: 1.765
Chip Fluorescence (mean) [8]: 0.8018

Sequence: TFWTNPQYRVKLEDPD [SeqRBMlowT_28]
Chip Fluorescence (max) [7]: 1.52
Chip Fluorescence (mean) [8]: 0.4012

Sequence: VACITWAAMLIIFSMV [Seqrandom_9980]
Chip Fluorescence (max) [9]: 0.9057
Chip Fluorescence (mean) [10]: -0.476

Sequence: DTLWIGSGTVTDSGNY [SeqRBM_1220]
Chip Fluorescence (max) [5]: 3.766
Chip Fluorescence (mean) [6]: 0.1629

Sequence: TFWTNPQYRVKVTEPD [SeqRBMlowT_7349]
Chip Fluorescence (max) [3]: 1.274
Chip Fluorescence (mean) [4]: 0.2599

Sequence: GTESTPSVVVHVCDSD [SeqRCN1_Desmodus_rotundus]
Chip Fluorescence (max) [9]: 0.4586
Chip Fluorescence (mean) [10]: 0.04317

Sequence: SFWANPQFIVSLEEPD [SeqRBMlowT_610]
Chip Fluorescence (max) [9]: 0.3721
Chip Fluorescence (mean) [10]: -0.5491

Sequence: VDIATNDLISELCNLC [Seqrandom_9952]
Chip Fluorescence (max) [5]: 4.084
Chip Fluorescence (mean) [6]: 0.2161

Sequence: KKMAPPCINIDFAPTN [SeqRBMlowT_322]
Chip Fluorescence (max) [11]: -0.3563
Chip Fluorescence (mean) [12]: -3.542

Sequence: VQLKIPQLRVSSVSKP [SeqLCORL_2_Sus_scrofa]
Chip Fluorescence (max) [9]: 0.981
Chip Fluorescence (mean) [10]: -0.5484

Sequence: DSHTVDPIPINPHSAV [SeqRBM_5538]
Chip Fluorescence (max) [9]: 0.9715
Chip Fluorescence (mean) [10]: -0.655

Sequence: GSSSSPPVDLKIPQVR [SeqRBMlowT_8820]
Chip Fluorescence (max) [3]: 1.178
Chip Fluorescence (mean) [4]: 0.2864

Sequence: TFWTNPQFKITLEELD [SeqRBMlowT_5669]
Chip Fluorescence (max) [1]: 2.6605
Chip Fluorescence (mean) [2]: 0.5654

Sequence: ADEAGPEIVITPTELP [SeqRBMlowT_3142]
Chip Fluorescence (max) [11]: 0.161
Chip Fluorescence (mean) [12]: -1.962

Sequence: VAQAFNVDGNCTQYWN [Seqrandom_9942]
Chip Fluorescence (max) [5]: 6.979
Chip Fluorescence (mean) [6]: 1.446

Sequence: PSDDQPGIVVHPCEED [SeqRBMlowT_365]
Chip Fluorescence (max) [7]: 1.806
Chip Fluorescence (mean) [8]: 0.4598

Sequence: RSYINPFVTFLDHGHR [SeqSFB3_Blumeria_graminis]
Chip Fluorescence (max) [9]: 0.7568
Chip Fluorescence (mean) [10]: -0.5098

Sequence: TFWTNPQYRITVTDPD [SeqRBMlowT_65]
Chip Fluorescence (max) [11]: 0.2441
Chip Fluorescence (mean) [12]: -1.026

Sequence: RAYINPFMQFQDGGQR [SeqRBMlowT_1515]
Chip Fluorescence (max) [7]: 1.533
Chip Fluorescence (mean) [8]: -0.1627

Sequence: ADEAIPKIVIHPPEEP [SeqRBMlowT_1972]
Chip Fluorescence (max) [1]: 3.233
Chip Fluorescence (mean) [2]: -0.1428

Results, then the sequence that gave them:

Chip Fluorescence (max) [1]: 3.279
Chip Fluorescence (mean) [2]: -0.004599
Sequence: VFAQEDYFLFPVILKE [Seqrandom_9943]

Chip Fluorescence (max) [3]: 1.011
Chip Fluorescence (mean) [4]: -0.2929
Sequence: TFWTNPQFVTLVKDGD [SeqRBM_8117]

Chip Fluorescence (max) [5]: 4.66
Chip Fluorescence (mean) [6]: 1.641
Sequence: LCWFLDYRVVLPFFAY [Seqshuffled_7970]

Chip Fluorescence (max) [7]: 1.734
Chip Fluorescence (mean) [8]: -0.1242
Sequence: ADEAQPGIVVHVCELP [SeqRBMlowT_119]

Chip Fluorescence (max) [1]: 2.918
Chip Fluorescence (mean) [2]: 1.097
Sequence: TFWTNPQFKVSLEEED [SeqRBMlowT_1125]

Chip Fluorescence (max) [3]: 1.034
Chip Fluorescence (mean) [4]: 0.3693
Sequence: RAMRILKCCPHPAAWN [Seqrandom_9981]

Chip Fluorescence (max) [11]: 0.1516
Chip Fluorescence (mean) [12]: -0.9286
Sequence: HSKLIPKVSIQSPVHH [SeqRBMlowT_2323]

Chip Fluorescence (max) [1]: 2.678
Chip Fluorescence (mean) [2]: 0.9155
Sequence: GSETQPGIVVHVCEDD [SeqRBMlowT_1216]

Chip Fluorescence (max) [7]: 1.609
Chip Fluorescence (mean) [8]: 0.3772
Sequence: RNPGQALLTLRGHSKQ [SeqRBMlowT_6189]

Chip Fluorescence (max) [9]: 0.8765
Chip Fluorescence (mean) [10]: 0.0532
Sequence: TFWTNPQYRITLEEVD [SeqRBMlowT_98]

Chip Fluorescence (max) [9]: 0.6726
Chip Fluorescence (mean) [10]: 0.4462
Sequence: KAYMCPFMQFQDGGRR [SeqRBMlowT_520]

Chip Fluorescence (max) [9]: 0.9523
Chip Fluorescence (mean) [10]: 0.09387
Sequence: TFTDNPQYTIKLVETD [SeqRBM_9774]

Chip Fluorescence (max) [1]: 3.2575
Chip Fluorescence (mean) [2]: 0.9321
Sequence: TLWTNPQYHITLPEED [SeqRBM_3002]

Chip Fluorescence (max) [11]: -0.8035
Chip Fluorescence (mean) [12]: -1.44
Sequence: HSKLIPKLSFQSPVHH [SeqRBMlowT_814]

Chip Fluorescence (max) [7]: 1.764
Chip Fluorescence (mean) [8]: -0.3424
Sequence: REYINPKMHFHFLNTV [SeqRBM_9087]

Chip Fluorescence (max) [3]: 0.9897
Chip Fluorescence (mean) [4]: 0.1872
Sequence: QFKKSNLLGFMAASGD [Seqshuffled_9600]

Chip Fluorescence (max) [3]: 1.133
Chip Fluorescence (mean) [4]: -0.8126
Sequence: TFWTNPQYKITLEEPD [SeqRBMlowT_54]

Chip Fluorescence (max) [3]: 0.9878
Chip Fluorescence (mean) [4]: -0.982
Sequence: TSSSLPTFNFSSSVIT [SeqNUP153_Canis_lupus]

Chip Fluorescence (max) [5]: 4.229
Chip Fluorescence (mean) [6]: 0.4051
Sequence: FLGRGPQLEDFDPSRD [Seqshuffled_9338]

Chip Fluorescence (max) [3]: 1.229
Chip Fluorescence (mean) [4]: -0.4106
Sequence: RNPGTFPLTLEGHKKQ [SeqRBMlowT_6333]

Chip Fluorescence (max) [7]: 1.5
Chip Fluorescence (mean) [8]: -1.084
Sequence: STSSLPTFSFSSPLPS [SeqRBMlowT_3929]

Chip Fluorescence (max) [1]: 2.666
Chip Fluorescence (mean) [2]: -0.09775
Sequence: TFWTNPQYKITLEEDD [SeqRBMlowT_9018]

Chip Fluorescence (max) [11]: -0.5586
Chip Fluorescence (mean) [12]: -0.9234
Sequence: TFHINPQLHLIVSDAD [SeqCAPN11_Daphnia_magna]

Chip Fluorescence (max) [3]: 1.102
Chip Fluorescence (mean) [4]: 0.1459
Sequence: NVSSSPRVTLKIPQHR [SeqRBM_7185]

Chip Fluorescence (max) [9]: 0.5324
Chip Fluorescence (mean) [10]: -0.206
Sequence: TFWSNPQFRITLEEPD [SeqRBMlowT_9100]

Chip Fluorescence (max) [1]: 3.347
Chip Fluorescence (mean) [2]: 0.3099
Sequence: STSSLPTFSFSSPVSH [SeqRBMlowT_1620]

Chip Fluorescence (max) [1]: 3.288
Chip Fluorescence (mean) [2]: -1.788
Sequence: RQGAGPILVLEGHWDA [SeqRBM_4400]

Chip Fluorescence (max) [11]: -0.7132
Chip Fluorescence (mean) [12]: -1.058
Sequence: EPEMSPSIFILKAHTT [SeqRBM_1051]

Chip Fluorescence (max) [5]: 6.02
Chip Fluorescence (mean) [6]: 1.294
Sequence: TFWTNPQYRLKLEDVD [SeqRBMlowT_929]

Chip Fluorescence (max) [1]: 2.82
Chip Fluorescence (mean) [2]: 1.158
Sequence: MAGPHPKIVITGPHEE [PKIVIT-containing synthetic peptide]

Chip Fluorescence (max) [9]: 0.4089
Chip Fluorescence (mean) [10]: -0.7319
Sequence: LKDEVPEVRLNIISNL [SeqRCN1_Ramazzottius_varieornatus]

Chip Fluorescence (max) [7]: 1.643
Chip Fluorescence (mean) [8]: 0.8461
Sequence: ESLWIPNATPTNFGVY [SeqRBM_4910]
